The conditions of the series: Crystal; Melting Point Apparatus.

Numbers after ± are expanded uncertainties.

With `O=c1cc(-c2ccc(O)c(O)c2)oc2cc(O)cc(O)c12` [5,7,3',4'-tetrahydroxyflavone], the Normal melting temperature is 337.38 ± 0.2 °C.
Take `C[C@@H]1O[C@@H](OC[C@H]2O[C@@H](Oc3c(-c4ccc(O)c(O)c4)oc4cc(O)cc(O)c4c3=O)[C@H](O)[C@@H](O)[C@@H]2O)[C@H](O)[C@H](O)[C@H]1O` [rutin]: the Normal melting temperature came to 177.20 ± 0.2 °C.
